Values joined by “and” are separate entries in the source; they are usually repeats but may differ in a detail not shown here. Identical values can stand only once. Marks after values point to notes of the source that are not given here.
Legend:
[1] = surfactants of Table 2; cited from earlier work
[2] = Interaction of 1% w/v lecithin with individual polyphenols, depletion from solution by HPLC; conditions: pH 2.43, anthocyanins depleted from single-strength cranberry juice, others from aqueous solution
Experimental: Aqueous polyphenol solutions near saturation were prepared by dissolving the individual polyphenols in 50 mL ultrapure water. Depends on their solubility in water, the polyphenols solutions were made in different concentrations. […] The pH of the solution was then adjusted to ˜2.43 using 6 M HCl in order to approximate the pH of juice. The adjusted solution was centrifuged at 3220×g for 20 min to remove any undissolved solids. Next, 1% w/v lecithin was added to 10 mL of the supernatant containing the polyphenols or the phenolic acids. The mixture was vortexed for 1 min and then centrifuged at 3220×g for 20 min to pellet any precipitate. The supernatant was transferred to a 2 mL microcentrifuge tube and was centrifuged for another 20 min at 21130×g before HPLC analysis. The depletion of individual polyphenol content expressed as a percent was determined according to the following equation: Polyphenol and phenolic acid content remaining in the supernatant were quantitated by reverse phase HPLC using a Dionex Ultimate 3000 HPLC equipped with an LPG-3400 quaternary pump, a WPS-3000 analytical autosampler, a DAD-3000 diode array detector, and an FLD-3100 fluorescence detector. […] Separation was with formic acid:water (5:95, v/v) (A) and methanol (B). The flow rate was set to 1 mL/min. The gradient was initially 5% B for 1 min, then increased to 35% B over 39 min, from 35% to 95% B over the next 10 min, and held constant at 95% B for 5 min, then decreased to 5% B over 2 min, and re-equilibrated at 5% B for the remaining 8 min. The column oven was set to 30° C. The absorbance was monitored at 254, 280, 370 and 520 nm. […] The gallic acid peaks in the 280 nm chromatogram was quantitated on the basis of authentic external standards. […] The flow rate was set to 0.5 mL/min. The gradient began at 15% B for 2 min, increased to 90% B over 6 min, then decreased to 15% B over 1 min and re-equilibrated at 15% B for the remaining 1 min. The column oven was set to 25° C. We collected absorbance data at 254, 280, 370 and 520 nm. All the peaks were identified in comparison to authentic external standards.

[3] = values from literature; cited from earlier work
[4] = Depletion of monomeric anthocyanins in diluted cranberry juice by surfactants, lecithins or phospholipids (pH differential method)
Experimental: Classic Mash Cranberry Juice Concentrate with essence returned was received frozen from the supplier (Ocean Spray Cranberries Inc., Lakeville-Middleboro, Mass., U.S.A.). The concentrate came at 50.0° Brix from manufacturer. It was immediately thawed, aliquoted and stored at −20° C. until use. Prior to experiment use, the concentrate was thawed, brought to room temperature, and diluted to 7.5° Brix according to the manufacture specification.
Individual surfactants/phospholipids were added to 10 mL juice samples at a final concentration of 0.01 M. Varying amounts of lecithin were added to 10 mL juice samples at 0.05, 0.1, 0.5, 1, 2, 3, 4, or 5% w/v. Lecithin with different HLB values were added to 10 mL juice samples at 1, 2, 3, 4, or 5% w/v. All mixtures were then vortexed for 3 min and then centrifuged at 3220×g for 20 min. The centrifugation step was repeated with the supernatants. All procedures were carried out at ambient temperatures unless otherwise specified.
Monomeric anthocyanin (MA) content was determined by the AOAC pH differential method. Samples were placed in 96-well plates (Thermo Scientific) for spectral acquisition using a SpectraMax Plus Microplate Reader (Molecular Devices, Sunnyvale, Calif., U.S.A.). We used the SoftMax Pro 5.4.4 to scale for pathlength (Molecular Devices, Sunnyvale, Calif., U.S.A.). Juice samples were diluted such that the absorbance at 520 nm was within the linear range of the instrument. Triplicate samples were analyzed, and the average values are reported.
The depletion of MA expressed as a percent was determined according to the following equation: […]

[5] = cited from earlier work; for pka: phospholipid components of lecithin
[6] = 0.01M phospholipid in cranberry juice

Compound | HLB value [1] | Depletion % [2] | also measured
CCCCCCCC/C=C\CCCCCCCC(=O)OCC(O)CO (racemic) [glycerol monooleate] | 3.4 | – | –
CCCCCCCCCCCCCCCCCC(=O)OCC(O)CO (racemic) [glycerol monostearate] | 3.8 | – | –
Oc1cc(O)c2c(c1)O[C@H](c1ccc(O)c(O)c1)[C@@H](O)C2 [(+)-catechin] | – | 18.4% | Depletion % ([2]; listed as (+)-Catechin): 18.4±0.5%; Log P [3]: 0.51^†
Oc1cc(O)c2cc(O[C@@H]3OC[C@H](O)[C@H](O)[C@H]3O)c(-c3ccc(O)c(O)c3)[o+]c2c1 [cyanidin-3-O-arabinoside] | – | 16.0% | Depletion % ([2]; listed as cyanidin-3-O-arabinose): 16.0±6.5%
OC[C@H]1O[C@@H](Oc2cc3c(O)cc(O)cc3[o+]c2-c2ccc(O)c(O)c2)[C@H](O)[C@@H](O)[C@H]1O [cyanidin-3-O-galactoside] | – | 49.1±3.5% and 49.1% | –
OC[C@H]1O[C@@H](Oc2cc3c(O)cc(O)cc3[o+]c2-c2ccc(O)c(O)c2)[C@H](O)[C@@H](O)[C@@H]1O [cyanidin-3-O-glucoside] | – | 45.0% | Depletion % ([2]; listed as Cyanidin-3-O-glucoside): 45.0±3.5%; Log P [3]: 0.39^†
Oc1cc(O)c2cc(O[C@H]3OC[C@H](O)[C@H](O)[C@H]3O)c(-c3cc(O)c(O)c(O)c3)[o+]c2c1 [delphinidin-3-O-arabinoside] | – | 11.1% | Depletion % ([2]; listed as Delphinidin-3-O-arabinose): 11.1±4.9%
O=C(O)c1cc(O)c(O)c(O)c1 [gallic acid] | – | did not induce precipitation of lecithin | –
O=c1c(-c2ccc(O)cc2)coc2cc(O)cc(O)c12 [genistein] | – | 61.0% | Depletion % ([2]; listed as Genistein): 61.0±3.8%
CCCCCCCC/C=C\CCCCCCCC(=O)OCC(CO)OC(=O)CCCCCCC/C=C\CCCCCCCC (stereo not shown) [glycerol dioleate] | 1.9 | – | –
CCCCCCCCCCCC(=O)OCC(O)CO (stereo not shown) [glycerol monolaurate] | 5.2 | – | –
CCCCCCCC/C=C\CCCCCCCC(=O)O [oleic acid] | 1 | – | –
COc1cc(-c2[o+]c3cc(O)cc(O)c3cc2O[C@@H]2O[C@H](CO)[C@@H](O)[C@H](O)[C@H]2O)ccc1O [peonidin-3-O-glucoside] | – | 43.0±4.0% and 43.0% | –
O=c1c(O[C@@H]2O[C@H](CO)[C@H](O)[C@H](O)[C@H]2O)c(-c2ccc(O)c(O)c2)oc2cc(O)cc(O)c12 [quercetin-3-O-galactoside] | – | 35.4% | Depletion % ([2]; listed as Quercetin-3-O-galactoside): 35.4±1.0%
O=c1c(O)c(-c2ccc(O)c(O)c2)oc2cc(O)cc(O)c12 [quercetin] | – | 41.3% | Depletion % ([2]; listed as Quercetin): 41.3±1.8%; Log P [3]: 1.82 ± 0.32
Oc1ccc(C=Cc2cc(O)cc(O)c2)cc1 [resveratrol] | – | – | Log P [3]: 2.57^†
CCCCCCCCCCCCOS(=O)(=O)[O-].[Na+] [sodium dodecyl sulfate] | 40 | – | –
CCCCCCCC/C=C\CCCCCCCC(=O)[O-].[Na+] [sodium oleate] | 18 | – | –
L-a-phosphatidylinositol (soy) [PI] | – | – | Depletion % of monomeric anthocyanins [4, 6]: 41.4±8.5% and 41.4 ± 8.5^a %; Depletion % of monomeric anthocyanins ([4]; 0.01M phospholipid in cranberry juice, listed as Phosphatidylinositol (PI)): 41.4±8.5%; pka [5]: 2.5
Phosphatidylcholine (soy) [PC] | – | – | Depletion % of monomeric anthocyanins [4, 6]: 6.69±3.57% and 6.69 ± 3.6^b %; pka [5]: 1.0
Phosphatidylethanolamine (soy) [PE] | – | – | Depletion % of monomeric anthocyanins [4, 6]: 10.4±2.5% and 10.4 ± 2.5^b %; pKa of the amino group [5]: about 9.5; pka [5]: 1.7
hexaglycerol dioleate | 9 | – | –
peonidin-3-O-arabinoside | – | 10.1% | Depletion % ([2]; listed as peonidin-3-O-arabinose): 10.1±6.3%
peonidin-3-O-galactoside | – | 42.2% | Depletion % ([2]; listed as Peonidin-3-O-galactoside): 42.2±4.1%
sodium stearoyl lactylate | 5.1 | – | –
sorbitan monostearate | 4.7 | – | –
sorbitan tristearate [sorbitan tristearate (Span 65)] | – | – | Depletion % of monomeric anthocyanins ([4]; 0.01M surfactants in diluted cranberry juice): 2.85%; Depletion % of monomeric anthocyanins ([4]; 0.01M surfactants in diluted cranberry juice, listed as sorbitan tristearate): no significant changes
triglycerol monostearate | 7 | – | –

From patent US11548845B2, “Methods of isolating phenols from phenol-containing media” (WISCONSIN ALUMNI RESEARCH FOUNDATION, priority 2019, dated 2023)
